Target: T1, His6-RMDPa (Pseudomonas aeruginosa, UniProt Q9HTB6)
T1 sequence (Q9HTB6 2-304 limits assumed): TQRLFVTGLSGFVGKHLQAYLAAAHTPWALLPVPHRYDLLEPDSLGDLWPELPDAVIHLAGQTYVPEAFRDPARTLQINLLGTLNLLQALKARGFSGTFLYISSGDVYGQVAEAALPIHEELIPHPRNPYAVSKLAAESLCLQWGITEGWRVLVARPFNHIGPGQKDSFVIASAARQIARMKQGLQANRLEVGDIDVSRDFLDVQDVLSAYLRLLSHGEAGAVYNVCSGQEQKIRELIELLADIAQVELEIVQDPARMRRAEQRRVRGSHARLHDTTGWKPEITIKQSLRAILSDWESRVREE
Test: capillary electrophoresis and NMR of product
Assay type: biochemical
Conditions: with GDP-6-deoxy-D-lyxo-hexos-4-ulose; hydride donor; 37 °C, pH 7.5

For `NC(=O)C1=CN([C@@H]2O[C@H](COP(=O)(O)OP(=O)(O)OC[C@H]3O[C@@H](n4cnc5c(N)ncnc54)[C@H](OP(=O)(O)O)[C@@H]3O)[C@@H](O)[C@H]2O)C=CC1` [NADPH], the “capillary electrophoresis and NMR of product” value was “in the presence of excess NADPH, His6-RMDPa catalyzed the conversion”.
